According to US6063777A, “Iminochlorinaspartic acid derivatives” (Wyeth Lederle Japan, Ltd., priority 1996, dated 2000):

What was measured:
HeLa cells = test: HeLa cell survival after diode laser (670 nm) irradiation, MTS-PMS reagent; assay type: cell-based
Method: HeLa cells were seeded in wells of a 96-well plate each containing 100 μl of a culture medium at 5×10^3 /well, and incubated at 37° C. overnight. In each well, the culture medium was removed, and 100 μl of a solution containing sodium salt of either of compound (I) or compound (II) in concentrations of 0, 6.25, 12.5, 25, 50 and 100 μM/ml was added (3 wells for each group of the concentrations) and incubated at 37° C. at for 6 hrs. Each well was washed with PBS(-) once, and then 100 μl of a fresh medium was added. The wells were irradiated using a diode laser (670 nm) under the conditions of 0.44W of laser intensity, 0.785 cm^2 of irradiation area (diameter: 1 cm) and 25 J/cm^2 of laser energy. After the irradiation, each well was incubated at 37° C. overnight and washed with PBS(-) once, then 100 μl of a fresh medium was added. To each well was added 20 μl of MTS-PMS reagent, and the well was further incubated at 37° C. for 2-4 hrs. The absorbance of each well at 492 nm was measured using a microplate reader. The cell survival rate at each of the above mentioned concentrations of the test compound was calculated considering the value for the well of 0 μM/ml of the test compound as 100%.

colon cancer Colon 26 = test: Laser irradiation to extirpated organ: distribution (cancer/organ ratio) by surface fluorescence, N2-pulsed laser, mice bearing Colon 26; assay type: in vivo, CDF1 mice; details: for Cancer/Brain ratio / Cancer/Kidney ratio / Cancer/Liver ratio / Cancer/Lung ratio / Cancer/Muscle ratio: sodium salt, 10 mg/kg intravenous
Method: CDF1 mice (5 per group) were implanted with tumor tissues of colon cancer Colon 26. Two weeks after the implantation, the mice were given an intravenous injection of sodium salt of each of compounds (I) and (II) (10 mg/kg for each mouse) which had been diluted with a distilled water for injection. At 3 hrs, 6 hrs and 12 hrs after the injection, the blood samples were collected and the organs bearing the tumor tissue were extirpated, irradiated with N2 -pulsed laser (N2, wavelength: 337 nm, 2 ns), and the excited fluorescent spectrum was measured. The wavelengths in the range of 600 to 900 nm were examined based on the peak wavelength of NADH at 470 nm (determination of the distribution of the test compound in the organ by the surface fluorescence method using N2 -pulsed laser spectrophotometry). That is, cancer/organ (or plasma) ratio was determined by calculating the peak wavelength in the range of 600 to 900 nm when the peak wavelength at 470 nm was considered as the basic value, 1.

eyeball tissues = test: Time course distribution of the compound in eyeball tissues by fluorescence microscopy; assay type: in vivo, rats (Long Evance Rats); details: 16 mg/kg tail vein
Method: Photocoagulation was induced in rats (Long Evance Rats weighing 200-300 g) by Argon green laser irradiation (irradiation diameter: 100 μm, 140 mW, 0.1 sec) near the retinal papilla on funduc oculi. Ten days after photocoagulation, fundus photographs and fluorescein angiographs were taken and the animals showing development of choroidal neovascularization were used for experiments at the 11th day.
The compound of the present invention was administered via the tail vein at a dose of 16 mg/kg. After administration, time course distribution of the compound in the eyeball tissues was observed by fluorescence microscopy.

[1] = Absorption wavelength / molar absorption coefficient; assay type: physicochemical

C=Cc1c(C)c2cc3nc(cc4[nH]c(cc5nc(cc1[nH]2)C(C)=C5CCC(=O)NC(CC(=O)O)C(=O)O)c(CCC(=O)NC(CC(=O)O)C(=O)O)c4C)C(C)(O)C3=CC=NO (stereo not shown) [Compound (I)]
cell destructing effect induced by a photosensitizing reaction (HeLa cells): strong cell destructing effect induced by a photosensitizing reaction
viability at 6.25 µM (HeLa cells; Homo sapiens, HeLa, light or radiation study, 6.25 μM, sodium salt, 6 hrs, 670 nm, 25 J/cm^2, read-out: Cell Survival Rate): 43%
viability at 12.5 µM (HeLa cells; Homo sapiens, HeLa, light or radiation study, 12.5 μM, sodium salt, 6 hrs, 670 nm, 25 J/cm^2, read-out: Cell Survival Rate): 19%
viability at 25 µM (HeLa cells; Homo sapiens, HeLa, light or radiation study, 25 μM, sodium salt, 6 hrs, 670 nm, 25 J/cm^2, read-out: Cell Survival Rate): 13%
viability at 50 µM (HeLa cells; Homo sapiens, HeLa, light or radiation study, 50 μM, sodium salt, 6 hrs, 670 nm, 25 J/cm^2, read-out: Cell Survival Rate): 10%
viability at 100 µM (HeLa cells; Homo sapiens, HeLa, light or radiation study, 100 μM, sodium salt, 6 hrs, 670 nm, 25 J/cm^2, read-out: Cell Survival Rate): 10%
cell killing effect against tumor cells (HeLa cells; compared with position isomer): remarkably higher cell killing effect against tumor cells compared with the position isomer
Cancer/Brain ratio (colon cancer Colon 26; 3 hr): 11.24
Cancer/Kidney ratio (colon cancer Colon 26; 3 hr): 1.54
Cancer/Liver ratio (colon cancer Colon 26; 3 hr): 1.35
Cancer/Lung ratio (colon cancer Colon 26; 3 hr): 5.02
Cancer/Muscle ratio (colon cancer Colon 26; 3 hr): 4.19
Cancer/Brain ratio (colon cancer Colon 26; 6 hr): 15.14
Cancer/Kidney ratio (colon cancer Colon 26; 6 hr): 1.36
Cancer/Liver ratio (colon cancer Colon 26; 6 hr): 2.02
Cancer/Lung ratio (colon cancer Colon 26; 6 hr): 7.85
Cancer/Muscle ratio (colon cancer Colon 26; 6 hr): 3.72
Cancer/Brain ratio (colon cancer Colon 26; 12 hr): 15.0
Cancer/Kidney ratio (colon cancer Colon 26; 12 hr): 1.27
Cancer/Liver ratio (colon cancer Colon 26; 12 hr): 0.92
Cancer/Lung ratio (colon cancer Colon 26; 12 hr): 6.45
Cancer/Muscle ratio (colon cancer Colon 26; 12 hr): 4.73
accumulability to cancerous tissues (colon cancer Colon 26; compared with position isomer): much higher accumulability to cancerous tissues as compared with its position isomer
fluorescence in choroid, lumens of choriocapillaris, choroidal arteries and veins (eyeball tissues; 5 minutes after administration): fluorescence was observed in the lumens of the choriocapillaris, choroidal arteries and veins
fluorescence in choroidal artery wall (eyeball tissues; 5 minutes after administration): also observed in the choroidal artery wall
fluorescence in retina, artery wall (eyeball tissues; 5 minutes after administration): prominent fluorescence was observed in the artery wall
fluorescence in retina, lumens of the blood capillaries (eyeball tissues; 5 minutes after administration): weak fluorescence was observed in the lumens of the blood capillaries
fluorescence in the entire choroidal neovascular tissues (eyeball tissues; 5 minutes after administration): weak fluorescence
fluorescence intensity, neoplastic vessels versus surrounding tissues (eyeball tissues; 5 minutes after administration): did not clearly differ between the neoplastic vessels and the surrounding tissues
fluorescence from the whole neoplastic vessels (eyeball tissues; 30 minutes to 1 hour after administration): fluorescence from the whole neoplastic vessels increased
fluorescence in choroidal artery wall (eyeball tissues; 2 hours after administration): prominent fluorescence was observed in the choroidal artery wall
fluorescence in lumens of large choroidal vessels and retinal artery wall (eyeball tissues; 2 hours after administration): diminished
fluorescence in the choriocapillaris veins (eyeball tissues; 2 hours after administration): disappeared
fluorescence in choroidal artery wall and retinal vessels (eyeball tissues; 4 hours after administration): gradually diminished
fluorescence in the choroidal neoplastic vessels (eyeball tissues; 4 hours after administration): persisted
fluorescence in choroidal neoplastic vessels and other vessels (eyeball tissues; 24 hours after administration): all disappeared
longest wavelength absorption end [1]: ≥ 670 nm
